From patent US20070004766A1, “Methods for relaxation of smooth muscle contractions using Trospium” (priority 2005, published 2007)

How the values were obtained:
[1] = tested on: bladder smooth muscle strips; test: Antimuscarinic activity on bladder smooth muscle strips (carbachol-induced contractions); format: cell-based, guinea pigs; conditions: Cavia porcellus, read-out: KB, inhibition of carbachol-induced contractions
[2] = target: T1, human recombinant muscarinic receptor M-3 (Homo sapiens, UniProt P20309); test: biochemical; format: binding
T1 construct: expressed in transfected cells; host or cells: Sf9 insect cells (membranes)
T1 sequence (P20309 whole entry): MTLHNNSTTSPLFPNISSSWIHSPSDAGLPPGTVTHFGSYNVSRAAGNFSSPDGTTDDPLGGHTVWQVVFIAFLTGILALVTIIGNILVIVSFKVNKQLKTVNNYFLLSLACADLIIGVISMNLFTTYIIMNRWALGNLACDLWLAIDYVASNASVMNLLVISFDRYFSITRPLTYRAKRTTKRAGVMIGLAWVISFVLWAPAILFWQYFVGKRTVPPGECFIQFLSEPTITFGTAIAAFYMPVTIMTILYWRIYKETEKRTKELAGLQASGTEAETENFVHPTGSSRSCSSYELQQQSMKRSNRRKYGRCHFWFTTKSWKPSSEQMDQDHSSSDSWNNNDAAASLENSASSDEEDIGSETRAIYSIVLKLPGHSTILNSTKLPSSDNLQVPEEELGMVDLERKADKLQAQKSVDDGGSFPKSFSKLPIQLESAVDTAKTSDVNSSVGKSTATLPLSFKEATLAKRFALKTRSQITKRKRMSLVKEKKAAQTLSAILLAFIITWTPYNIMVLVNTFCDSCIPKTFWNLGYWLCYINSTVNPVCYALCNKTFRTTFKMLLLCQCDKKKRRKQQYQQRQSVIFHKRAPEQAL

Work on Cc1ccc(O)c([C@H](CCN(C(C)C)C(C)C)c2ccccc2)c1 [Tolterodine] yielded a Kb [1] of 1.5 to 5.5 nM.

For O=C(OC1CC2CCC(C1)[N+]21CCCC1)C(O)(c1ccccc1)c1ccccc1 (stereo not drawn) [Trospium, 3α-hydroxy-spiro[1αH,5αH-nortropane-8,1′-pyrrolidinium]chloride benzilate], the Ki [2] was 0.501 nM and the Kb [1] was 1.5 to 5.5 nM.
